Experimental data from publication PMC9145622, “Synthesis, Biological Evaluation, and Docking Studies of Antagonistic Hydroxylated Arecaidine Esters Targeting mAChRs” (Molecules, 2022).

What was measured:
hM4 = target: T1, hM4 (Homo sapiens, UniProt P08173); assay: Competitive [3H]NMS radioligand binding, CHO-K1 membranes expressing hM4; details: [3H]NMS, CHO-hM4 cell membrane preparations; read-out: Affinity: Ki ± SD hM4
T1 sequence (P08173 1-479): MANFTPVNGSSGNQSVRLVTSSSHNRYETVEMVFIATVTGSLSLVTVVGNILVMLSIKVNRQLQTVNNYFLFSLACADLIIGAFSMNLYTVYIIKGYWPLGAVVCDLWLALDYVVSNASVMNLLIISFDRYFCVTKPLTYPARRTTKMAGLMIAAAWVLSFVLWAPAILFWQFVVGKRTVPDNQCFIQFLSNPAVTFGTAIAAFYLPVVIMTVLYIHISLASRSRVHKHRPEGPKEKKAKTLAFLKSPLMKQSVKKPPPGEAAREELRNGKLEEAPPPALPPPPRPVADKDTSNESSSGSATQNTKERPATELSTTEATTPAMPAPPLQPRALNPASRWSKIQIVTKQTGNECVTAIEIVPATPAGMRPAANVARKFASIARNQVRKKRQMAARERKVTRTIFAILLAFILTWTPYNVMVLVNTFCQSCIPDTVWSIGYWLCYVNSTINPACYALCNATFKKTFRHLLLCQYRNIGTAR
Text: (§1) The arecaidine esters’ affinities towards the human mAChR subtypes hM1–hM5 were studied in a competitive radioligand binding assay using CHO-K1 cell membrane homogenates expressing a single mAChR subtype and tritiated N-methyl scopolamine methyl chloride ([^3H]NMS). To speed up our affinity testing regime, we subjected all test substances to preliminary single-concentration displacement assays, as described previously. Compounds with percent displacements below 75% at any of the subtypes were dropped from further investigations (Table S1). For compounds meeting the percent displacement threshold (8c, 10b, 10c, 17b, 18b, and 25), inhibition constants (Ki) were assessed in dose-dependent displacement experiments (Table 2).
(§2) Cell membranes bearing hM1-hM5 receptors were prepared as described previously. Briefly, stably transfected CHO-K1 cells were grown to at least 80% confluency in T175 flasks, washed with ice-cold DPBS, and scraped into a mixture of ice-cold 2 mL 10 mM Tris-HCl, 1 mM EDTA-buffer, pH 7.4 and 200 µL protease inhibitor. A cell homogenate was prepared by passing the cell suspension through a G29 needle. The cell homogenates corresponding to two T175 flasks were combined and subsequently centrifuged (10 min, 1000× g, 4 °C). Ultracentrifugation of the supernatant (1 h, 100,000× g, 4 °C) yielded a membrane pellet, which was suspended in 250 µL 50 mM Tris-HCl buffer, pH 7.4 and stored at −80 °C.
(§3) Then, 5 µL of test compound in DMSO, 50 µL of [^3H]NMS in assay buffer, and 445 µL of membrane suspension in assay buffer were incubated for 90 min at 23 °C in PP tubes. Maximum binding was measured by using 5 µL DMSO, and nonspecific binding was measured by using 5 µL of 1 µM scopolamine in DMSO. The effective concentration of [^3H]NMS was 0.2 nM, 0.3 nM, 0.8 nM, 0.2 nM, and 1 nM for M1–M5 and 4–30 µg membrane were used per tube. The membrane-bound radioactivity was recovered by filtration through Whatman™ GF/B glass fiber filters presoaked in aqueous 0.1% PEI using an M-36 tygon tubed cell harvester (Brandel®, Gaithersburg, MD, USA). Membranes were washed three times with ice-cold washing buffer (50 mM Tris, pH 7.4) before being dried, transferred to 2 mL scintillation cocktail (UltimaGold™, high flashpoint LSC cocktail, PerkinElmer, Waltham, MA, USA) and counted in a β-counter (Hidex TDCR liquid scintillation counter in CPM mode). IC50 values were calculated by a variable slope logistic regression using at least five distinct concentrations of test compounds, pipetted in triplicates.

hM1 = target: T2, hM1 (Homo sapiens, UniProt P11229); assay: Competitive [3H]NMS radioligand binding, CHO-K1 membranes expressing hM1; details: for Ki: [3H]NMS, CHO-hM1 cell membrane preparations, read-out: Affinity: Ki ± SD hM1; for x-Fold Selectivity for hM1 vs. hM2: ratio of the Ki values hM2/hM1; for x-Fold Selectivity for hM1 vs. hM3: ratio of the Ki values hM3/hM1; for x-Fold Selectivity for hM1 vs. hM4: ratio of the Ki values hM4/hM1; for x-Fold Selectivity for hM1 vs. hM5: ratio of the Ki values hM5/hM1
T2 sequence (P11229 1-460): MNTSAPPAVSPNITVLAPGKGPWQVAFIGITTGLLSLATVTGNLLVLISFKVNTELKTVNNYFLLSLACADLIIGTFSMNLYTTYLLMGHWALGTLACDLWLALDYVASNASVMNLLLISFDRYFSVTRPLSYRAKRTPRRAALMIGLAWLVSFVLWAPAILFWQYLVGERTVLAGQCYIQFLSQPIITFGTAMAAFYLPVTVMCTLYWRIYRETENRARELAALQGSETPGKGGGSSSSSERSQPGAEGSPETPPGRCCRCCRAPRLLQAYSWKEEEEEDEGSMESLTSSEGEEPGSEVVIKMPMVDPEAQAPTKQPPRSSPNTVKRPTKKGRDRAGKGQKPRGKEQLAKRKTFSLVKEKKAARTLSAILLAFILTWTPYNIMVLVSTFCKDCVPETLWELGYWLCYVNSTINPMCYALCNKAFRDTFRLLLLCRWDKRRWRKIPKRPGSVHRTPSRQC
Text: as §1, §2, §3

| Ki (hM4) | Ki (hM1) | x-Fold Selectivity for hM1 vs. hM2 (hM1) | x-Fold Selectivity for hM1 vs. hM3 (hM1) | x-Fold Selectivity for hM1 vs. hM4 (hM1) | x-Fold Selectivity for hM1 vs. hM5 (hM1) | SMILES |
| --- | --- | --- | --- | --- | --- | --- |
| 697 ± 132 nM | 525 ± 36 nM | >1.9 x-fold | 1.3 x-fold | 1.3 x-fold | 0.8 x-fold | CN1CCC=C(C(=O)OCc2ccc(CO)cc2)C1 [Compound 8c, 4-(hydroxymethyl)benzyl 1-methyl-1,2,5,6-tetrahydropyridine-3-carboxylate] |
| 93 ± 23 nM | 74 ± 3.2 nM | 13.2 x-fold | 2.0 x-fold | 1.3 x-fold | 1.0 x-fold | CN1CCC=C(C(=O)OC(c2ccccc2)c2ccc(CO)cc2)C1 (stereo not shown) [Compound 10c, (4-(hydroxymethyl)phenyl)(phenyl)methyl 1-methyl-1,2,5,6-tetrahydropyridine-3-carboxylate] |
| 18.4 ± 5.8 nM | 5.5 ± 0.5 nM | – | 3.7 x-fold | 3.3 x-fold | 2.0 x-fold | CN1CCC=C(C(=O)OC(c2ccccc2)c2cccc(O)c2)C1 (stereo not shown) [Compound 17b, (3-hydroxyphenyl)(phenyl)methyl 1-methyl-1,2,5,6-tetrahydropyridine-3-carboxylate] |
| 634 ± 90 nM | 259 ± 75 nM | – | 0.7 x-fold | 2.4 x-fold | 0.35 x-fold | CN1CCC=C(C(=O)OCc2cccc(O)c2)C1 [Compound 18b, 3-hydroxybenzyl 1-methyl-1,2,5,6-tetrahydropyridine-3-carboxylate] |
| 217 ± 23 nM | 231 ± 60 nM | >4.3 x-fold | 1.2 x-fold | 0.9 x-fold | 1.2 x-fold | CN1CCC=C(C(=O)OCC(O)(c2ccccc2)c2ccccc2)C1 [Compound 25, 2-hydroxy-2,2-diphenylethyl 1-methyl-1,2,5,6-tetrahydropyridine-3-carboxylate] |
